In patent US12559454B2, “Benzenesulfonamide derivatives and uses thereof” (2692372 Ontario, Inc., priority 2019, dated 2026):
pIC50, pKi: −log10 of the molar value. Each block holds one compound with its values, some of them ahead of it.

What was measured:
BTK [1] = target: T1, BTK (Homo sapiens, UniProt Q06187); test: In vitro BTK inhibition (no preincubation); type: biochemical
JAK3 = target: T2, JAK3 (Homo sapiens, UniProt P52333); test: In vitro JAK3 inhibition (no preincubation); type: biochemical
T2 sequence (P52333 1-1124): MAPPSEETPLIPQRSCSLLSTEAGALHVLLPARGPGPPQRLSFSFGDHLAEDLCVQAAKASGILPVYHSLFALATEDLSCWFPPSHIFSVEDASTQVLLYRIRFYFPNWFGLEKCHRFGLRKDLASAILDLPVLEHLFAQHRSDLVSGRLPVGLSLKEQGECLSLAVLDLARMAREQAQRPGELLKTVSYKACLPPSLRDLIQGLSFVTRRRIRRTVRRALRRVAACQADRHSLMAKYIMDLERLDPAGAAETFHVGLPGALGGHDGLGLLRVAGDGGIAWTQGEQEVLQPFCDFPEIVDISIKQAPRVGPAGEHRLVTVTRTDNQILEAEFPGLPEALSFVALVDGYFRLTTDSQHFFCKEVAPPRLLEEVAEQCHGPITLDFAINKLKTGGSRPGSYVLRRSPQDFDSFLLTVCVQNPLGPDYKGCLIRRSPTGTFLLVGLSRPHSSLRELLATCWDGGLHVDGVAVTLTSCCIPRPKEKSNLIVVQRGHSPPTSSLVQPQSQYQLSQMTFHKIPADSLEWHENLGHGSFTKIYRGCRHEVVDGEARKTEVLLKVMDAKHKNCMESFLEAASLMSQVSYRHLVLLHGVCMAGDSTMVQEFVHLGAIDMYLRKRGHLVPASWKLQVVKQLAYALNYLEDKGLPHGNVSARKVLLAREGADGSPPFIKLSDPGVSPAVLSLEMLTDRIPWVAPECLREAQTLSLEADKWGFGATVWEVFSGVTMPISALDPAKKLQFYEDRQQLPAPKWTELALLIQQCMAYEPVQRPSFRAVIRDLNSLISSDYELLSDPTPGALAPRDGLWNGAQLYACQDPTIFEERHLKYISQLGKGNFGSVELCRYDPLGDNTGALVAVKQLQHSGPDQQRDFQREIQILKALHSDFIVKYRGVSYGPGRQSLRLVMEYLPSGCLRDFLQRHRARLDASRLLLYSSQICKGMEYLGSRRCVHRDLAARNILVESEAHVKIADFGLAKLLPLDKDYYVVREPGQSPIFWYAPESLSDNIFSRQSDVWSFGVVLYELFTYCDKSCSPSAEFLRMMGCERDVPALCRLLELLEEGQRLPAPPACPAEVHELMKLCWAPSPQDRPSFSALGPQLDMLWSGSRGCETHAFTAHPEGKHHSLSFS
Procedure: In vitro BTK and JAK3 inhibition studies are shown in Table 17 and Table 18 (no preincubation).

BTK [2] = target: T1, BTK; test: Selected kinase inhibition, BTK (Table 6); type: biochemical
[3] = system: normal primary human fibroblast (NHF) cell lines; test: Toxicity study, CellTiter-Blue viability in normal primary human fibroblasts (NHF); type: cell-based; settings: NHF cells, 72 hrs exposure
Procedure: Anti-cancer efficacy of exemplary compounds of this application was assessed in vitro in different cancer cell lines. Cell viability was examined following treatment at various concentration of inhibitor (0.097656-50 μM) using a cell Titer-Blue cell viability assay. 1×10^4 cells (NHF cells)/well were plated in 96-well assay plates in culture medium. All cells were grown in DMEM, IMDM and RPMI-1640 supplemented with 10% FBS. After 24 hrs, test compounds and vehicle controls were added to appropriate wells so the final volume was 100p in each well. The cells were cultured for the desired test exposure period (72 hrs) at 37° C. and 5% CO2. The assay plates were removed from 37° C. incubator and 20 μl/well of CellTiter-Blue® Reagent was added. The plates were incubated using standard cell culture conditions for 1-4 hours and the plates were shaken for 10 seconds and record fluorescence at 560/590 nm.
Representative data for exemplary compounds against select normal primary human fibroblast (NHF) cell lines are presented in the following Table 7.

[4] = Parallel artificial membrane permeability assay (PAMPA), Example C4; type: in vitro ADME; settings: PBS pH 7.4, 10 μM, 16 hours
Procedure: Assay Procedures. […] 7) Cover with plate lid. Vortex at 750 rpm for 100 seconds. […] Determine the compound concentrations by LC/MS/MS.

BTK [5] = target: T1, BTK; test: BTK irreversible inhibition, enzyme kinetic analysis; type: biochemical
Procedure: One of ordinary skill in the art will recognize that this is consistent with the irreversible inhibition of BTK by compound I-A1.
One of ordinary skill in the art will recognize that this is consistent with the irreversible inhibition of BTK by compound I-A6.
One of ordinary skill in the art will recognize that this is consistent with the irreversible inhibition of BTK by compound 3A-2.
The shift of IC50 to a lower value after pre-incubation of the enzyme indicates to one of ordinary skill in the art that a significant portion of the enzyme was inhibited irreversibly during the incubation period.

[6] = system: RL human non-Hodgkin's lymphoma B cell line; test: In vitro efficacy in RL cells (Example G1); settings: read-out: RL (IC50, μM)
[7] = system: normal pooled human fibroblasts; test: Viability of normal pooled human fibroblasts (Example G1); settings: Fibroblast, read-out: Human Fibroblast (IC50, μM)
[8] = system: RL human non-Hodgkin's lymphoma B cell line; test: Cell viability in RL cells (Table 6); type: cell-based
BTK (His-tagged protein) = test: Covalent modification of BTK by mass spectrometry (intact protein); type: binding; settings: 10 μM BTK, 50 μM compound, 2 hours, 30° C.
Procedure: After incubation of 10 μM BTK in the presence of 50 μM of compound I-A1 for 2 hours at 30° C., the mass of the modified protein was determined by mass spectrometry. […] After incubation with inhibitor I-A1, the intensity of this had decreased by an order of magnitude, and the most intense peak is consistent with the protein whose mass was increased by 595 Da, corresponding closely to the expected mass of the inhibitor I-A1 (less one fluoride from inhibitor, and one proton from protein, 596 Da).

BTK [9] = target: T1, BTK; test: BTK washout experiment; type: biochemical; settings: 3-h incubation, 40 nM BTK, 296 nM compound, 400-fold dilution
Procedure: After a 3-h incubation of 40 nM BTK in the presence of 296 nM of compound I-A1, a 400-fold dilution was performed to remove excess inhibitor.
After a 6-h incubation of 50 nM BTK in the presence of 280 nM of compound 3A-6, a 400-fold dilution was performed to remove excess inhibitor.
By way of contrast, a “washout” experiment performed with ARQ-531 gives a very different result, because this compound lacks a warhead and is known to inhibit BTK reversibly. After a 6-h incubation of 50 nM BTK in the presence of 177 nM of ARQ-531, a 400-fold dilution was performed to remove excess inhibitor. […] This indicates to one of ordinary skill in the art that the enzyme was not inhibited irreversibly during the incubation with ARQ-531.

[10] = Reactivity profiling with glutathione, LC/MS/MS; type: physicochemical; settings: PBS buffer with 5 mM GSH, PBS pH 7.4, 25° C., 5 μM compound
Procedure: The experiment was started by placing 1 μL of 1 mM stocking solution of the test compound in DMSO in 199 μL of PBS buffer at pH 7.4 with 5 mM GSH to reach a final concentration of 5 μM. The final DMSO concentration was 0.5%. The solution was then incubated at 25° C. at 600 rpm, and was quenched with 600 μL solution of acetonitrile at 0, 30, 60 and 120 minutes. The quenched solution was vortexed for 10 minutes and centrifuged for 40 minutes at 3,220 g. An aliquot of 100 μL of the supernatant was diluted by 100 μL ultra-pure water, and the mixture was used for LC/MS/MS analysis. The data was processed and analyzed using Microsoft Excel.

T1 sequence (Q06187 whole entry, species assumed): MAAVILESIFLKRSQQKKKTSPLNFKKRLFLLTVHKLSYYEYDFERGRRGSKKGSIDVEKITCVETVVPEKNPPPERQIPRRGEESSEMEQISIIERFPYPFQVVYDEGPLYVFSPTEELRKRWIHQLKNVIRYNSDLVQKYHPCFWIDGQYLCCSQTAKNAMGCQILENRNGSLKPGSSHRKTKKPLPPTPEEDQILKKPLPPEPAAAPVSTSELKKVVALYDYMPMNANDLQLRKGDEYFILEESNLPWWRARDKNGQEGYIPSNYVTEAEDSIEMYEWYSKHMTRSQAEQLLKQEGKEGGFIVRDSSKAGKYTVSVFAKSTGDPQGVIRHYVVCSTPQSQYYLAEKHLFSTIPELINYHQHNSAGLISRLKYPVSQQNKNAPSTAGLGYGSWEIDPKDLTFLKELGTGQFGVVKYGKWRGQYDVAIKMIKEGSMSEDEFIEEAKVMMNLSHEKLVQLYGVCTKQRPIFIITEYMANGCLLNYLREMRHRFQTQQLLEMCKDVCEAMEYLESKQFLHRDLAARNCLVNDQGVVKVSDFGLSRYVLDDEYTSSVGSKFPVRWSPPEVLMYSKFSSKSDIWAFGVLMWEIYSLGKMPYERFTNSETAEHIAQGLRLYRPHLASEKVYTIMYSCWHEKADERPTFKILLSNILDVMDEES

pIC50 (BTK [2]): 6.00 to 7.00 | −Log Pe [4]: C (>6 to ≤7) | pIC50 (BTK [1]; Table 17): 6.00 to 7.00 | inhibition profile by enzyme kinetic analysis (BTK [5]; 0.1 nM BTK, 500 μM ATP): time-dependent inhibition | kinact (BTK [5]; 0.1 nM BTK, 500 μM ATP, saturation kinetics): 0.000671 s⁻¹ | pKi (BTK [5]; 0.1 nM BTK, 500 μM ATP, saturation kinetics of irreversible inhibition): 7.15 | IC50 [6]: 1 µM
SMILES: Nc1ncnc2c1c(-c1ccc(Oc3ccccc3)cc1)nn2[C@@H]1CCCN(S(=O)(=O)c2c(F)c(F)c(F)c(F)c2OC2CC2)C1 [I-A6, (R)-1-(1-((2-cyclopropoxy-3,4,5,6-tetrafluorophenyl)sulfonyl)piperidin-3-yl)-3-(4-phenoxyphenyl)-1H-pyrazolo[3,4-d]pyrimidin-4-amine]
pIC50 [3]: < 4.60 | IC50 [7]: > 25 µM

pIC50 (BTK [2]): 6.00 to 7.00 | pIC50 [8]: 5.00 to 6.00
SMILES: Nc1ncnc2c1c(-c1ccc(Oc3ccccc3)cc1)nn2[C@H]1CCCN(S(=O)(=O)c2c(F)c(F)c(F)c(F)c2F)C1 [I-A2, (S)-1-(1-((perfluorophenyl)sulfonyl)piperidin-3-yl)-3-(4-phenoxyphenyl)-1H-pyrazolo[3,4-d]pyrimidin-4-amine]
pIC50 [3]: 5.00 to 6.00

pIC50 [8]: 5.00 to 6.00 | −Log Pe [4]: B (>5 to ≤6) | inhibition profile by enzyme kinetic analysis (BTK [5]; 0.1 nM BTK, 500 μM ATP): time-dependent inhibition | inhibition at 0.296 µM (BTK [9]; read-out: enzyme inhibited irreversibly): > 90% | remaining activity at 0.296 µM (BTK [9]; relative to DMSO, read-out: residual activity of the enzyme): 7% | IC50 [6]: 1.61 µM
SMILES: Nc1ncnc2c1c(-c1ccc(Oc3ccccc3)cc1)nn2[C@@H]1CCCN(S(=O)(=O)c2c(F)c(F)c(F)c(F)c2F)C1 [I-A1, (R)-1-(1-((perfluorophenyl)sulfonyl)piperidin-3-yl)-3-(4-phenoxyphenyl)-1H-pyrazolo[3,4-d]pyrimidin-4-amine]
pIC50 [3]: 5.00 to 6.00 | mass increase of BTK after incubation (BTK (His-tagged protein)): 595 Da | IC50 [7]: 3.98 µM

pIC50 (BTK [2]): 6.00 to 7.00 | half-life at 5 μM [10]: 6.94 to 20.8 days | −Log Pe [4]: B (>5 to ≤6) | pIC50 (BTK [1]; Table 17): 6.00 to 7.00 | inhibition profile by enzyme kinetic analysis (BTK [5]; 0.1 nM BTK, 500 μM ATP): linear enzyme reaction rates | pIC50 (BTK [5]; fitting of linear reaction rates to a reversible binding model, read-out: IC50 (reversible binding model)): 6.48
SMILES: Nc1ncnc2c1c(-c1ccc(Oc3ccccc3)cc1)nn2[C@@H]1CCCN(S(=O)(=O)c2c(F)c(F)cc(F)c2F)C1 [I-A5, (R)-3-(4-phenoxyphenyl)-1-(1-((2,3,5,6-tetrafluorophenyl)sulfonyl)piperidin-3-yl)-1H-pyrazolo[3,4-d]pyrimidin-4-amine]
pIC50 [3]: < 4.60

pIC50 (BTK [2]): 6.00 to 7.00 | pIC50 [8]: 5.00 to 6.00
SMILES: Nc1ncnc2c1c(-c1ccc(Oc3ccccc3)cc1)nn2S(=O)(=O)c1c(F)c(F)c(F)c(F)c1F [I-A3, 1-((perfluorophenyl)sulfonyl)-3-(4-phenoxyphenyl)-1H-pyrazolo[3,4-d]pyrimidin-4-amine]

The remaining lines, values behind:

SMILES: CN(CCNc1ncnc2[nH]ccc12)S(=O)(=O)c1c(F)c(F)c(F)c(F)c1F [Compound 3A-28, N-(2-((7H-pyrrolo[2,3-d]pyrimidin-4-yl)amino)ethyl)-2,3,4,5,6-pentafluoro-N-methylbenzenesulfonamide]
pIC50 (BTK [1]; Table 18): 6.00 to 7.00 | pIC50 (JAK3): 5.00 to 6.00

SMILES: C=CC(=O)N1CCC[C@@H](n2nc(-c3ccc(Oc4ccccc4)cc3)c3c(N)ncnc32)C1 [Ibrutinib, reference compound]
pIC50 [8]: 4.52 to 5.00 | pIC50 [3]: 4.60 to 5.00 | IC50 [6]: 10.3 µM | IC50 [7]: 26.8 µM

SMILES: Nc1ncnc2c1c(-c1ccc(Oc3ccccc3)cc1)nn2[C@@H]1CCCN(S(=O)(=O)c2cc(F)c(F)c(F)c2F)C1 [I-A4, (R)-3-(4-phenoxyphenyl)-1-(1-((2,3,4,5-tetrafluorophenyl)sulfonyl)piperidin-3-yl)-1H-pyrazolo[3,4-d]pyrimidin-4-amine]
pIC50 (BTK [2]): 7.00 to 8.00 | pIC50 [3]: < 4.60 | −Log Pe [4]: B (>5 to ≤6)

SMILES: C[C@H]1CC[C@@H](Nc2ncnc3[nH]ccc23)CN1S(=O)(=O)c1c(F)c(F)c(F)c(F)c1F [Compound 3A-25, N-((3R,6S)-6-methyl-1-((perfluorophenyl)sulfonyl)piperidin-3-yl)-7H-pyrrolo[2,3-d]pyrimidin-4-amine]
pIC50 (JAK3): 5.00 to 6.00

SMILES: O=S(=O)(NCCNc1ncnc2[nH]ccc12)c1c(F)c(F)c(F)c(F)c1F [Compound 3A-27, N-(2-((7H-pyrrolo[2,3-d]pyrimidin-4-yl)amino)ethyl)-2,3,4,5,6-pentafluorobenzene sulfonamide]
pIC50 (BTK [1]; Table 18): 8.00 to 10.00 | pIC50 (JAK3): 5.00 to 6.00

SMILES: Nc1ncnc2c1c(-c1ccc(Oc3ccccc3)cc1)nn2[C@@H]1CCCN(S(=O)(=O)c2c(OC3CC3)c(F)c(F)c(F)c2OC2CC2)C1 [I-A7, (R)-1-(1-((2,6-dicyclopropoxy-3,4,5-trifluorophenyl)sulfonyl)piperidin-3-yl)-3-(4-phenoxyphenyl)-1H-pyrazolo[3,4-d]pyrimidin-4-amine]
pIC50 [3]: < 4.60 | −Log Pe [4]: C (>6 to ≤7)
